{"source": "patent US10329243B2", "about": "“Biphenyl derivative and uses thereof” (XI'AN LIBANG PHARMACEUTICAL CO., LTD, priority 2015, dated 2019)", "format_in_all_cases": "in vivo, SD rats", "key": {"Fas": {"system": "Fas", "test": "Fas determination (immunohistochemical method), cerebral ischemic reperfusion MCAO model", "protocol": "(§1) Rats were intraperitoneally injected with 10% chloral hydrate 350 mg/kg after anesthesia and opened up at the center of the neck in accordance with the Zea Longa modified method. The right common carotid artery was separated, and the right external carotid artery branches was ligated. A small opening was made at the distal end of the external carotid artery, and a previously prepared thread was inserted through the common carotid artery and the external carotid artery bifurcation into the internal carotid artery, till the anterior end of the middle cerebral artery, with an immersed depth of 18 to 19 mm. The thread was then secured, and the wound was sutured layer by layer. After the operation, the rats were placed in a clean incubator to wake up. […] The sham operation group, the ischemic reperfusion group, and the Example groups were prepared strictly according to the requirements of the cerebral ischemic reperfusion model, while in the sham operation group the thread was put only into the external carotid artery. The animals were allowed to eat and drink freely after waking up. After 2 h, the thread was pulled out to achieve reperfusion. The sham operation group, the ischemic reperfusion group, and the Example groups were administered intravenously the aqueous solution of the biphenyl derivatives in PEG400 at 40 mg/kg (40 mg/kg means that 40 mg of the test compound per kg of the body weight of rats) 30 min before reperfusion and 12 h after reperfusion, respectively. The sham operation group and the ischemic reperfusion group were injected with the same amount of blank PEG400 aqueous solution at the same time point.\n(§2) 24 hours after reperfusion, 8 rats in each group were sacrificed by decapitation, the brain was removed, rinsed with PBS (pH 7.4) at −20° i for 20 min, evenly sliced (with a thickness of 2 mm), stained in a 2% TTC solution at 37°% in the dark for 30 min, fixed in 10% formalin for 24 h, and photographs were taken to analyze the infarct volume. A mixture of femoral arterial and venous blood was drawn from another 8 rats in each group under anesthesia, placed in a low temperature centrifuge at 4° C., centrifuged at 3500 r/min for 20 min, and the supernatant was stored in a refrigerator at −20° C. ready for SOD and MDA detection. After the blood was drawn, a perfusion needle was insert through the apex to the ascending aorta, and saline at 4° C. was rapid infused until the effluent became clear, followed by 4% paraformaldehyde phosphate buffer perfusion for fixation; the brain was removed by craniotomy, and brain tissues 2 mm in front of and behind the optic chiasma were taken and fixed, dehydrated, rendered transparent, impregnated in wax, and embedded. Brain continuous coronary tissue pathological sections were consecutively cut for later use. The remaining 8 rats in each group were sacrificed, brains were removed, the ischemic brain hemispheres were immediately taken on an ice tray, and 10% brain tissue homogenate was prepared for the detection of IL-1β and TNF-α.\nThe immunohistochemical method was used for determination. Brain tissue paraffin sections were dewaxed into water, washed with 3% H2O2 to eliminate endogenous peroxidase activity, and rinsed with distilled water for 3 times. Sodium citrate buffer was used for antigen heat repairing, and blocking with calf serum was carried out at room temperature for 15 min; a rabbit anti-mouse Fas antibody was added dropwise, allowed to stand at 4°t overnight, biotinylated goat anti-rabbit IgG was added dropwise, and heated in a water bath at 37°a for 20 min. Washing with PBS for 5 min was continuously repeated 4 times, followed by staining with DAB and sufficient washing without counterstaining. The sections were then gradient dehydrated with alcohol, made transparent with toluene, sealed and fixed. Images were captured by a video camera under high-power optical microscope and inputted into the image analysis system for image analysis. […]"}, "[1]": {"system": "rats with permanent cerebral ischemia injury", "protocol": "336 healthy male SD rats weighing 250-300 g, provided by the Experimental Animal Center of the Fourth Military Medical University, were randomly divided into […]: the sham operation group, the permanent cerebral ischemia model group, and Examples 1-12 groups. The biphenyl derivatives used in each of the Examples 1-12 groups were the same as those in Example 13.\nas §1, with “the permanent cerebral ischemia model” for “the ischemic reperfusion”, “up. […]” for “up. After 2 h, the thread was pulled out to achieve reperfusion. The sham operation group, the ischemic reperfusion group, and the Example groups were administered intravenously the aqueous solution of the biphenyl derivatives in PEG400 at 40 mg/kg (40 mg/kg means that 40 mg of the test compound per kg of the body weight of rats) 30 min before reperfusion and 12 h after reperfusion, respectively.”\nThe neurological impairment was scored in each group 24 h after the embolism. The scoring was in accordance with the Longa 5-grade method: grade 0: no nerve injury symptom; grade 1: inability of stretching the contralateral forepaw; grade 2: circling to the opposite side; grade 3: tumbling to the opposite side; grade 4: no autonomous activity with loss of consciousness."}, "brain cell apoptosis": {"system": "brain cell apoptosis", "test": "Apoptosis determination (TUNEL method), cerebral ischemic reperfusion MCAO model", "protocol": "as §1, §2\nThe TUNEL method was used for determination. Brain tissue paraffin sections were dewaxed into water, washed with 3% H2O2 to eliminate endogenous peroxidase activity, and rinsed with distilled water for 2 min, repeated 3 times. A labelling solution was added for labelling at 37°t for 2 h, and a blocking solution was added for blocking at room temperature for 30 min. A biotinylated anti-digoxin antibody was added for a reaction at 37°a for 30 min, and SABC was added for a reaction at 37°a for 30 min. The sections were continuously rinsed with TBS for 5 min repeatedly for 4 times, stained with DAB, sufficiently washed, mild counterstained with Hematoxylin, gradient dehydrated with alcohol, made transparent with toluene, sealed and fixed. Five non-overlapping fields in semi-dark band were randomly selected from each section and inputted into the image analysis system."}, "[2]": {"conditions": "permanent cerebral ischemia model rats, 40 mg/kg intravenously 30 min before insertion of thread and 12 h after embolism, scored 24 h after the embolism, Longa grade 0-4"}, "[3]": {"conditions": "ischemic reperfusion MCAO rats, 40 mg/kg intravenously, brain sections 24 h after reperfusion, gray scale inversely proportional to positive expression"}, "[4]": {"conditions": "ischemic reperfusion MCAO rats, 40 mg/kg intravenously, brain sections 24 h after reperfusion, TUNEL, average of five fields"}, "[5]": {"conditions": "ischemic reperfusion rat model, edaravone 3 mg/kg"}}, "note": "Where two headings read alike, the source gives them in different places.", "data": [{"compound": "3,3′,5,5′-tetraisopropylbiphenyl-4,4′-bis(oxymethylene phosphate) [Example 3 group]", "values": [{"measurement": "Fas average gray scale", "setting": "Fas; rat, in vivo, iv, 40 mg/kg", "value": "144.56 ± 6.32"}, {"measurement": "Average score of neurological impairment", "setting": "[1]; [2]", "value": 2.8}, {"measurement": "Number of apoptotic cells", "setting": "brain cell apoptosis; rat, in vivo, iv, 40 mg/kg", "value": "25.14 ± 2.54"}]}, {"compound": "CC(C)c1cc(-c2cc(C(C)C)c(Cl)c(C(C)C)c2)cc(C(C)C)c1O", "note": "[Example 9 group, 4-chloro-4′-hydroxy-3,3′,5,5′-tetraisopropylbiphenyl]", "values": [{"measurement": "Fas average gray scale", "setting": "Fas; rat, in vivo, iv, 40 mg/kg", "value": "147.11 ± 5.61"}, {"measurement": "Average score of neurological impairment", "setting": "[1]; rat, in vivo, iv, 40 mg/kg", "value": 2.8}, {"measurement": "Number of apoptotic cells", "setting": "brain cell apoptosis; rat, in vivo, iv, 40 mg/kg", "value": "25.47 ± 4.19"}]}, {"compound": "CC(=O)OC(C)Oc1c(C(C)C)cc(-c2cc(C(C)C)c(O)c(C(C)C)c2)cc1C(C)C", "note": "(stereo not drawn) [Example 12 group, Ethyl 1-(4′-hydroxy-3,3′,5,5′-tetraisopropylbiphenyl-4-oxo)acetate]", "values": [{"measurement": "Fas average gray scale", "setting": "Fas; [3]", "value": "144.26 ± 3.47"}, {"measurement": "Average score of neurological impairment", "setting": "[1]; [2]", "value": 2.6}, {"measurement": "Number of apoptotic cells", "setting": "brain cell apoptosis; [4]", "value": "26.27 ± 5.37"}]}, {"compound": "CC(=O)Oc1c(C(C)C)cc(-c2cc(C(C)C)c(O)c(C(C)C)c2)cc1C(C)C", "note": "[Example 1 group, 4′-hydroxy-3,3′,5,5′-tetraisopropylbiphenyl-4-acetate]", "values": [{"measurement": "Average score of neurological impairment", "setting": "[1]; [2]", "value": 2.4}]}, {"compound": "CC(C)c1cc(-c2cc(C(C)C)c(OC=O)c(C(C)C)c2)cc(C(C)C)c1O", "note": "[Example 10 group]", "values": [{"measurement": "Fas average gray scale", "setting": "Fas; [3]", "value": "145.06 ± 4.08"}, {"measurement": "Average score of neurological impairment", "setting": "[1]; [2]", "value": 2.4}, {"measurement": "Number of apoptotic cells", "setting": "brain cell apoptosis; [4]", "value": "22.18 ± 5.22"}]}, {"compound": "CCCc1cc(-c2cc(CCC)c(O)c(CCC)c2)cc(CCC)c1O", "note": "[Example 7 group, 4,4′-dihydroxy-3,3′,5,5′-tetrapropylbiphenyl]", "values": [{"measurement": "Fas average gray scale", "setting": "Fas; [3]", "value": "157.26 ± 4.05"}, {"measurement": "Average score of neurological impairment", "setting": "[1]; [2]", "value": 2.3}, {"measurement": "Number of apoptotic cells", "setting": "brain cell apoptosis; [4]", "value": "20.28 ± 3.76"}]}, {"compound": "CC(C)c1cc(-c2cc(C(C)C)c(OC(=O)C(N)C(C)C)c(C(C)C)c2)cc(C(C)C)c1O", "note": "(stereo not drawn) [Example 11 group, 4′-hydroxy-3,3′,5,5′-tetraisopropylbiphenyl-2-amino-3-methylbutyrate]", "values": [{"measurement": "Fas average gray scale", "setting": "Fas; [3]", "value": "152.12 ± 6.17"}, {"measurement": "Average score of neurological impairment", "setting": "[1]; [2]", "value": 2.3}, {"measurement": "Number of apoptotic cells", "setting": "brain cell apoptosis; [4]", "value": "24.19 ± 4.29"}]}, {"compound": "CCCc1cc(-c2cc(CCC)c(O)c(C(C)C)c2)cc(C(C)C)c1O", "note": "[Example 6 group, 4,4′-dihydroxy-3,3′-diisopropyl-5,5′-dipropylbiphenyl]", "values": [{"measurement": "Fas average gray scale", "setting": "Fas; [3]", "value": "155.33 ± 3.78"}, {"measurement": "Average score of neurological impairment", "setting": "[1]; [2]", "value": 2.2}, {"measurement": "Number of apoptotic cells", "setting": "brain cell apoptosis; [4]", "value": "19.47 ± 5.02"}]}, {"compound": "CC1=NN(c2ccccc2)C(=O)C1", "note": "[Edaravone injection, edaravone, reference compound]", "values": [{"measurement": "Fas average gray scale", "setting": "Fas; [5]", "value": "139.65 ± 2.05"}, {"measurement": "Number of apoptotic cells", "setting": "brain cell apoptosis; [5]", "value": "28.6 ± 4.90"}]}, {"compound": "CC(C)c1cc(-c2cc(C(C)C)c(OC(=O)CCC(=O)O)c(C(C)C)c2)cc(C(C)C)c1O", "note": "[Example 5 group, [4-(4′-hydroxy-3,3′,5,5′-tetraisopropylbiphenyl)oxy]-4-carbonyl butyric acid]", "values": [{"measurement": "Fas average gray scale", "setting": "Fas; [3]", "value": "148.02 ± 4.16"}, {"measurement": "Average score of neurological impairment", "setting": "[1]; [2]", "value": 2.4}, {"measurement": "Number of apoptotic cells", "setting": "brain cell apoptosis; [4]", "value": "20.56 ± 4.29"}]}, {"compound": "CC(=O)Oc1c(C(C)C)cc(-c2cc(C(C)C)c(OC(C)=O)c(C(C)C)c2)cc1C(C)C", "note": "[Example 2 group, 3,3′,5,5′-tetraisopropylbiphenyl-4′-diacetate]", "values": [{"measurement": "Fas average gray scale", "setting": "Fas; [3]", "value": "148.36 ± 5.33"}, {"measurement": "Average score of neurological impairment", "setting": "[1]; [2]", "value": 2.5}, {"measurement": "Number of apoptotic cells", "setting": "brain cell apoptosis; [4]", "value": "24.65 ± 3.41"}]}, {"compound": "CC(C)c1cc(-c2cc(C(C)C)c(C(=O)O)c(C(C)C)c2)cc(C(C)C)c1O", "note": "[Example 8 group, 4′-hydroxy-3,3′,5,5′-tetraisopropylbiphenyl-4-carboxylic acid]", "values": [{"measurement": "Fas average gray scale", "setting": "Fas; [3]", "value": "148.82 ± 7.62"}, {"measurement": "Average score of neurological impairment", "setting": "[1]; [2]", "value": 2.7}, {"measurement": "Number of apoptotic cells", "setting": "brain cell apoptosis; [4]", "value": "24.81 ± 3.35"}]}]}
